Laboratory results published in patent US8034767B2, “Method for producing purine nucleosides and nucleotides by fermentation using a bacterium belonging to the genus Escherichia or Bacillus” (priority 2006, dated 2011).

Assays:
E. coli strain TG1 = assay: MIC of purine base analogues on M9 glucose minimal agar plates, parental strain; format: cell-based; conditions: Escherichia coli, 10^5 to 10^6 cells spotted, growth after 44 h at 37° C.
Procedure: (§1) The minimal inhibitory concentrations (MIC) of purine base analogues for the strain TG1::PnlpD-yeaS and the parental strain TG1 were determined on M9 glucose minimal agar plates containing graded concentrations of inhibitors. The plates were spotted with 10^5 to 10^6 cells from an overnight culture grown in a minimal medium. The growth was estimated after 44 h incubation at 37° C.

[1] = test system: E. coli strain TG1::PnlpD-yeaS; assay: MIC of purine base analogues on M9 glucose minimal agar plates, yeaS-overexpressing strain; format: cell-based; conditions: Escherichia coli, 44 h, read-out: MIC for E. coli strain TG1::PnlpD-yeaS
Procedure: as §1

Compound	MIC (E. coli strain TG1) [µg/mL]	MIC [1] [µg/mL]
Nc1nc(N)c2[nH]cnc2n1 [2,6-diaminopurine]	200	600
Sc1ncnc2nc[nH]c12 [6-mercaptopurine]	50	150
Nc1nc2nc[nH]c2c(=S)[nH]1 [6-thioguanine]	30	450
Nc1ncnc2nn[nH]c12 [8-azaadenine]	100	250
